From patent US20060189576A1, “Substituted vitamin d analogues and their therapeutic uses” (priority 2003, published 2006)

Columns and labels:
[1] = system: HL-60 cells; assay: HL-60 cell differentiation (NBT reduction assay); type: cell-based; conditions: for prodifferentiating effect (in words): HL 60 cells; for IN VITRO STUDIES HL 60: potency to differentiate HL 60 cells, percentage activity vs 1α,25(OH)2D3 (=100%)
Description: To evaluate the effect on cell differentiation HL-60 cells were seeded at 4×10^4 cells/ml in 25 cm^2 Falcon tissue chambers using RPMI 1640 medium supplemented with 20% FCS and gentamycin (50 μg/ml) in a final volume of 5 ml. Cultures were maintained at 37° C. in a humidified atmosphere of 5% CO2 in air. […] After 4 days of culture, the dishes were shaken to lose adherent cells. Cells were washed twice in RPMI, counted and assayed for differentiation markers (NBT reduction assay). Superoxide production was measured as NBT reducing activity as described previously (Ostrem V. K et al. Proc Natl Acad Sci USA 84: 2610-2614, 1987). HL-60 cells at 1×10^6/ml were mixed with an equal volume of freshly prepared solution of phorbol 12-myristate 13-acetate (200 ng/ml) and […] and incubated for 30 min at 37° C. The percentage of cells containing black formazan deposits was determined using a hemacytometer.

[2] = biological target: T1, hDBP (Homo sapiens, UniProt P02774); assay: Affinity for human DBP: competition with [3H]1α,25(OH)2D3; type: binding; conditions: percentage activity (at 50% of the dose response) in comparison with 1α,25(OH)2D3 (=100%)
T1 sequence (P02774 17-474): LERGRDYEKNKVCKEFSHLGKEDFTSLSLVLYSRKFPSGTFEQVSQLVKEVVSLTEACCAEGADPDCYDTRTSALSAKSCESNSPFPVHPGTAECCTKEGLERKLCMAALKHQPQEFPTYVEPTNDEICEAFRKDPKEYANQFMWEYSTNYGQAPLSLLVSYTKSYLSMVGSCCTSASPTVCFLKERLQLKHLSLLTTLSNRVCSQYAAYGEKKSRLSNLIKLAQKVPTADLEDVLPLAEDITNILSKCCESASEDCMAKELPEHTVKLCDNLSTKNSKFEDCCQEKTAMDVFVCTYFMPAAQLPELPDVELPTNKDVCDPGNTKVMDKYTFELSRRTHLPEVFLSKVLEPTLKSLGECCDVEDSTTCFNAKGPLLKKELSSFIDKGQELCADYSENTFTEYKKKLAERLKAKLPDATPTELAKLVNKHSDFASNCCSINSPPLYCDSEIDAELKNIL
Description: Phase separation was then obtained by the addition of 0.5 ml of cold dextran-coated charcoal.

[3] = biological target: T2, vitamin D receptor (Sus scrofa, UniProt A3RGC1); conditions: percentage activity (at 50% of the dose response) in comparison with 1α,25(OH)2D3 (=100%)
T2 sequence (A3RGC1 1-427): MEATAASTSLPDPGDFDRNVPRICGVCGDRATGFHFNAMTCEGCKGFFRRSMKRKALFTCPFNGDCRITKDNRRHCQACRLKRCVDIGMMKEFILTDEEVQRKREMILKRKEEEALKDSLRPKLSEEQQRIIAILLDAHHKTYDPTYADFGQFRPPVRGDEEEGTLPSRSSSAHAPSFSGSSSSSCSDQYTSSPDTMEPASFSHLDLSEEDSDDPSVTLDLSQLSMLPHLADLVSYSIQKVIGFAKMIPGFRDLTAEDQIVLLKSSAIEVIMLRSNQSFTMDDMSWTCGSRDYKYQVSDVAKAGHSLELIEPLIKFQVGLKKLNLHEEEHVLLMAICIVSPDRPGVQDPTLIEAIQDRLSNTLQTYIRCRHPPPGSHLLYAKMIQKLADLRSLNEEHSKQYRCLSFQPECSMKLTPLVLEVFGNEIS
Description: The incubation was performed at 4° C. for 20 h and phase separation was obtained by addition of dextran-coated charcoal.

[4] = for IN VIVO STUDIES Osteocalcin serum: mice, daily intraperitoneal injection 7 consecutive days, percentage activity vs 1α,25(OH)2D3 (=100%); for IN VIVO STUDIES Calcium serum / IN VIVO STUDIES Calcium urine / Serum calcium in mice: ip
Description: Eight weeks old, male NMRI mice were obtained from the Proefdierencentrum of Leuven (Belgium) and fed a vitamin D-replete diet (0.2% calcium, 1% phosphate, 2000 U vitamin D/kg; Hope Farms, Woerden, The Netherlands). […] The control group was injected with vehicle (arachis oil). The average weight of each group of 6 mice was determined at the beginning and at the end of the experiment. The following parameters were evaluated: serum calcium, serum osteocalcin, femur calcium and urinary calcium. Serum and urinary calcium were measured by a microcolorimetric assay (Sigma, St. Louis, Mo.). Femurs were removed and femur calcium content was measured in HCl-dissolved bone ash (obtained by heating for 24 h in an oven at 100° C.), using the same technique as for serum and urinary calcium.

[5] = system: MCF-7 cells; assay: MCF-7 cell proliferation ([3H]thymidine incorporation); type: cell-based; conditions: for antiproliferative effect (in words): MCF-7 cells; for IN VITRO STUDIES MCF-7: antiproliferative action, percentage activity vs 1α,25(OH)2D3 (=100%); for Antiproliferative activity on MCF-7 cells: percentage activity (at 50% of the dose response) vs 1α,25(OH)2D3 (=100%)
Description: To evaluate the effect of on cell proliferation, malignant MCF-7 cells were cultured in DMEM/nut. mix. […] Cultures were maintained at 37° C. in a humidified atmosphere of 5% CO2 in air. MCF-7 cells were seeded at 5×10^3 cells/well in the above described medium in 96-well microtiter plates in a final volume of 0.2 ml per well. Triplicate cultures were performed. […] Then, 1 μCi [^3H]thymidine was added to each well and cells were harvested after 4 h incubation with a Packard harvester and measured by the Packard Topcount System (Packard, Meriden, USA).

Row | SMILES | prodifferentiating effect (in words) [1] | IN VITRO STUDIES HL 60 [1] | AFFINITY STUDIES DBP [2] | AFFINITY STUDIES VDR [3] | IN VIVO STUDIES Osteocalcin serum [4] | further reduction of calcemic activity by the 2β counterpart ([4]; mouse, in vivo) | IN VIVO STUDIES Calcium serum ([4]; mouse, in vivo) | IN VIVO STUDIES Calcium urine ([4]; mouse, in vivo) | antiproliferative effect (in words) [5] | IN VITRO STUDIES MCF-7 [5] | times more potent than 1α,25(OH)2D3 in vitro ([5]; range over HL 60 differentiation and MCF-7 proliferation, test not specified) | Serum calcium in mice ([4]; mouse, in vivo) | Antiproliferative activity on MCF-7 cells [5] | enhancement of antiproliferative effects on MCF-7 cells on introduction of the 23-yne side chain ([5]; compared with 2α-ethyl-19-nor-1α,25(OH)2D3 (110))
1 | CCC1C(O)CC(=CC=C2CCCC3(C)C2CCC3C(C)CCCC(C)(C)O)CC1O (stereo not drawn) [Compound 109, 2β-ethyl-19-nor-1α,25(OH)2D3] | less active than 1α,25(OH)2D3 | 10% | 9% | 40% | 0.8% | 16 fold | 0.4% | 0.8% | less active than 1α,25(OH)2D3 | 90% | – | – | – | –
2 | CCC1C(O)CC(=CC=C2CCCC3(C)C2CCC3C(C)CCCC(C)(C)O)CC1O (stereo not drawn) [Compound 110, 2α-ethyl-19-nor-1α,25(OH)2D3] | very potent | 200% | 20% | 90% | 13% | – | 13% | 13% | very potent | 650% | 2 to 6 times | – | – | –
3 | CCC1C(O)CC(=CC=C2CCCC3(C)C2CCC3C(C)CC#CC(C)(C)O)CC1O (stereo not drawn) [Compound 111, 2β-ethyl-19-nor-23-yne-1α,25(OH)2D3] | – | 80% | 0.5% | 9% | 0.8% | – | 0.4% | 0.8% | – | 700% | – | 0.4% | 700% | –
4 | CCC1C(O)CC(=CC=C2CCCC3(C)C2CCC3C(C)CC#CC(C)(C)O)CC1O (stereo not drawn) [Compound 112, 2α-ethyl-19-nor-23-yne-1α,25(OH)2D3] | very potent | 300% | 0.9% | 55% | 3% | – | 1.6% | 0.8% | very potent | 2000% | – | – | – | 3 fold
5 | CCC1C(O)CC(=CC=C2CCCC3(C)C2CCC3C(C)CCCC(C)(C)O)CC1O (stereo not shown) [Compound 113] | – | 10% | 3% | 8% | 0.4% | – | 0.4% | 0.4% | – | 75% | – | – | – | –
6 | CCC1C(O)CC(=CC=C2CCCC3(C)C2CCC3C(C)CCCC(C)(C)O)CC1O (stereo not drawn) [Compound 114, 2α-ethyl-14-epi-19-nor-1α,25(OH)2D3] | – | 80% | 40% | 30% | 1% | – | 1% | 1% | – | 150% | – | – | – | –
7 | CCC1C(O)CC(=CC=C2CCCC3(C)C2CCC3C(C)CC#CC(C)(C)O)CC1O (stereo not drawn) [Compound 115, 2β-ethyl-14-epi-19-nor-23-yne-1α,25(OH)2D3] | – | 80% | 0.2% | 9% | 0.1% | – | <<0.1% | <0.1% | – | 600% | – | <<0.1% | 600% | –
8 | CCC1C(O)CC(=CC=C2CCCC3(C)C2CCC3C(C)CC#CC(C)(C)O)CC1O (stereo not drawn) [Compound 116, 2α-ethyl-14-epi-19-nor-23-yne-1α,25(OH)2D3] | very potent | 550% | 0.1% | 65% | 0.2% | – | 0.2% | – | very potent | 3000% | – | 0.2% | 3000% | –
9 | CC(CC#CC(C)(C)O)C1CCC2C(=CC=C3CC(O)C(C)C(O)C3)CCCC21C (stereo not drawn) [Compound 117, 3,14-bis-epi-2α-methyl-19-nor-23-yn-1α,25-dihydroxyvitamin-D3] | very potent | 400% | 0% | 40% | – | – | <0.25% | <0.25% | very potent | – | – | – | – | –
